Experimental data reported in paper PMC8518494 (Angewandte Chemie (International Ed. in English), 2021).
Read-outs that look alike come from different tables or passages of the source.

What was measured:
Y27A-TbpA = target: T1, Y27A-TbpA (Escherichia coli, UniProt P31550, Y27A); assay: Nanopore recording of ligand binding to Y27A-TbpA inside ClyA-AS
T1 sequence (P31550 19-327 Y27A): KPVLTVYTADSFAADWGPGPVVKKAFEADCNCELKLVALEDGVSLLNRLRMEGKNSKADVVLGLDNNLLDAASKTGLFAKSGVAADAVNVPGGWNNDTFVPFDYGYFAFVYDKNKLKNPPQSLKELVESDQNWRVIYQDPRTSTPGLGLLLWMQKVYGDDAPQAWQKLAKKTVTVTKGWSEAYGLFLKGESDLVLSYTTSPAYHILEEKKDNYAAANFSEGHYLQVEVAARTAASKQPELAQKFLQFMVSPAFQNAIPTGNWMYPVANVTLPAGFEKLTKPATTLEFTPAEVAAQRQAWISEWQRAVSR

WT-TbpA [1] = target: T2, WT-TbpA (Escherichia coli, UniProt P31550)
WT-TbpA [2] = target: T2, WT-TbpA; assay: biochemical

T2 sequence (P31550 19-327): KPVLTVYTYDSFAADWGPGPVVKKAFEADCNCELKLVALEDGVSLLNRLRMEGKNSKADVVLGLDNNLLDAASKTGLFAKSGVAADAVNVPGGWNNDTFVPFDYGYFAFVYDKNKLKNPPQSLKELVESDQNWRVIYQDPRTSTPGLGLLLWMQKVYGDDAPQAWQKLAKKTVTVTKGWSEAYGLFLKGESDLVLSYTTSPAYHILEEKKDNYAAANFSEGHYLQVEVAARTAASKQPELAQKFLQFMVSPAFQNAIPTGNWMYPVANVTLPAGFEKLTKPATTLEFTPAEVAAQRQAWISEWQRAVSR

With `Cc1ncc(C[n+]2csc(CCO[P@](=O)(O)OP(=O)(O)O)c2C)c(N)n1` [ThDP, thiamine diphosphate] the Kd (Y27A-TbpA) was ~2000 nM, the “ΔIres%(ThDP1)” value (Y27A-TbpA; 2 μM ThDP added to cis, first type of event) was 4.0±0.1% and the “ΔIres%(ThDP2)” value (Y27A-TbpA; 2 μM ThDP added to cis, second type of event) was 7.2±0.1%. For the same compound, the “capture frequency for both events” value (Y27A-TbpA; 2 μM ThDP, cis) was 6.5 ± 3 µM⁻¹ s⁻¹, the koff (Y27A-TbpA; read-out: k off(ThDP1)) was 2.9 ± 0.4 s⁻¹ and the koff (Y27A-TbpA; read-out: k off(ThDP2)) was 1.7 ± 0.3 s⁻¹.
`Cc1ncc(C[n+]2csc(CCOP(=O)(O)O)c2C)c(N)n1` [ThMP, thiamine monophosphate] was tested, and the “ΔIres%(ThMP1)” value (Y27A-TbpA; 0.1 μM ThMP added to cis, first kind of bound event) was 4.8±0.2%, the “ΔIres%(ThMP2)” value (Y27A-TbpA; 0.1 μM ThMP added to cis, second kind of bound event) was 7.3±0.3% and the kon (Y27A-TbpA; read-out: capture frequency (an approximate k on) for both events) was 1.6e+07 ± 4e+06 M⁻¹ s⁻¹. It also gave a koff (Y27A-TbpA; read-out: k off(ThMP1)) of 2.3 ± 0.4 s⁻¹ and a koff (Y27A-TbpA; read-out: k off(ThMP2)) of 2 ± 0.2 s⁻¹.
In the case of `Cc1ncc(C[n+]2csc(CCO)c2C)c(N)n1` [thiamine, Thiamine], the Kd (Y27A-TbpA; Kd app(cis), thiamine added to cis, Hill curve fit to bound fraction) is reported as 23.1 ± 0.1 nM, the Kd (Y27A-TbpA; Kd app(trans), thiamine added to trans) is reported as 91.1 ± 0.4 nM and the “difference in apparent Kd between cis and trans” value (Y27A-TbpA; Y27A-TbpA) is reported as 4 fold. For the same compound, the “difference in k on rates between cis and trans” value (Y27A-TbpA; Y27A-TbpA) was 4 fold, the “ΔIres%(thiamine)” value (Y27A-TbpA; Y27A-TbpA 15 nM cis, 4 μM thiamine added to cis, −45 mV) was 6.9±0.6% and the “Ires%(thiamine), closed state” value (Y27A-TbpA; Y27A-TbpA, thiamine-bound state) was 48.4±0.9%. The koff (Y27A-TbpA; read-out: k off(cis)) was 1.8 ± 0.3 s⁻¹, the koff (Y27A-TbpA; read-out: k off(trans)) was 1.7 ± 0.1 s⁻¹ and the kon (Y27A-TbpA; read-out: k on(cis)) was 6.9e+07 ± 9e+06 M⁻¹ s⁻¹. For the same compound, the kon (Y27A-TbpA; read-out: k on(trans)) was 1.4e+07 ± 3e+06 M⁻¹ s⁻¹, the “effect of addition of thiamine to the trans chamber” value (Y27A-TbpA; thiamine added to trans, Y27A-TbpA in cis) was “induced thiamine events” and the Hill coefficient (Y27A-TbpA; thiamine, cis and trans) was 1. For the same compound, the “ΔIres%(thiamine)” value (WT-TbpA [1]; WT-TbpA 15 nM cis, 4 μM thiamine added to cis, −45 mV, 150 mM NaCl, 15 mM Tris.HCl pH 7.5) was 3.1±0.6%, the “Ires%(thiamine), closed state” value (WT-TbpA [1]; WT-TbpA, thiamine-bound state) was 45.9±0.8% and the “effect of addition of thiamine to the trans solution” value (WT-TbpA [1]; thiamine added to trans, WT-TbpA in cis) was “did not elicit additional current blockades”. It also gave a Kd (WT-TbpA [2]) of 67 ± 5 nM.
